# Source: patent publication US20260345596A1, “TREATMENT OF LOCALLY ADVANCED OR METASTATIC UROTHELIAL CARCINOMA WITH ERDAFINITIB” (priority 2023, published 2026)
# Experiment: Study BLC3001 (NCT03390504, THOR) Cohort 1: safety, adverse events, laboratory abnormalities and exposure
# Conditions: for Central serous retinopathy / Chorioretinopathy / Detachment of macular retinal pigment epithelium / Detachment of retinal pigment epithelium / Eye disorders (excluding central serous retinopathy) / Macular detachment / Nail disorders / Retinopathy / Skin disorders / Subretinal fluid: adverse events of interest; for Hematuria / Hyponatremia / Urinary tract infection: serious adverse events, any cause
smiles,measurement,setting,value
"COc1cc(OC)cc(N(CCNC(C)C)c2ccc3ncc(-c4cnn(C)c4)nc3c2)c1 [Erdafitinib, N-(3,5-dimethoxyphenyl)-N′-(1-methylethyl)-N-[3-(1-methyl-1H-pyrazol-4-yl)quinoxalin-6-yl]ethane-1,2-diamine]",Ongoing central serous retinopathy events of grade 1,5 of 7 ongoing,71%
same,Central serous retinopathy events resolved by clinical cutoff,"16 of 23 patients, any grade",70%
same,Central serous retinopathy,Grade 1,12 (8.9) no. (%)
same,Chorioretinopathy,Grade 1,5 (3.7) no. (%)
same,Detachment of macular retinal pigment epithelium,Grade 1,0 no. (%)
same,Detachment of retinal pigment epithelium,Grade 1,3 (2.2) no. (%)
same,Eye disorders (excluding central serous retinopathy),Grade 1,37 (27.4) no. (%)
same,Macular detachment,Grade 1,2 (1.5) no. (%)
same,Nail disorders,Grade 1,25 (18.5) no. (%)
same,Retinopathy,Grade 1,0 no. (%)
same,Skin disorders,Grade 1,27 (20) no. (%)
same,Subretinal fluid,Grade 1,4 (3.0) no. (%)
same,Hematuria,Grade 1,0 no. (%)
same,Hyponatremia,Grade 1,0 no. (%)
same,Urinary tract infection,Grade 1,0 no. (%)
same,Alanine aminotransferase increased,"Grade 1, treatment-emergent",28 (20.7) no. (%)
same,Alopecia,"Grade 1, treatment-emergent",29 (21.5) no. (%)
same,Anemia,"Grade 1, treatment-emergent",10 (7.4) no. (%)
same,Aspartate aminotransferase increased,"Grade 1, treatment-emergent",21 (15.6) no. (%)
same,Asthenia,"Grade 1, treatment-emergent",6 (4.4) no. (%)
same,Constipation,"Grade 1, treatment-emergent",24 (17.8) no. (%)
same,Decreased appetite,"Grade 1, treatment-emergent",18 (13.3) no. (%)
same,Diarrhea,"Grade 1, treatment-emergent",49 (36.3) no. (%)
same,Dry eye,"Grade 1, treatment-emergent",20 (14.8) no. (%)
same,Dry mouth,"Grade 1, treatment-emergent",45 (33.3) no. (%)
same,Dry skin,"Grade 1, treatment-emergent",23 (17.0) no. (%)
same,Dysgeusia,"Grade 1, treatment-emergent",28 (20.7) no. (%)
same,Fatigue,"Grade 1, treatment-emergent",12 (8.9) no. (%)
same,Hyperphosphatemia,"Grade 1, treatment-emergent",70 (51.9) no. (%)
same,Nausea,"Grade 1, treatment-emergent",10 (7.4) no. (%)
same,Neutropenia,"Grade 1, treatment-emergent",0 no. (%)
same,Onycholysis,"Grade 1, treatment-emergent",9 (6.7) no. (%)
same,Onychomadesis,"Grade 1, treatment-emergent",9 (6.7) no. (%)
same,Palmar-plantar erythrodysesthesia syndrome,"Grade 1, treatment-emergent",6 (4.4) no. (%)
same,Stomatitis,"Grade 1, treatment-emergent",22 (16.3) no. (%)
same,Weight decreased,"Grade 1, treatment-emergent",12 (8.9) no. (%)
same,Alanine aminotransferase increased,"Grade 1, treatment-related",18 (13.3) no. (%)
same,Alopecia,"Grade 1, treatment-related",27 (20.0) no. (%)
same,Anemia,"Grade 1, treatment-related",8 (5.9) no. (%)
same,Aspartate aminotransferase increased,"Grade 1, treatment-related",18 (13.3) no. (%)
same,Asthenia,"Grade 1, treatment-related",4 (3.0) no. (%)
same,Constipation,"Grade 1, treatment-related",8 (5.9) no. (%)
same,Decreased appetite,"Grade 1, treatment-related",15 (11.1) no. (%)
same,Diarrhea,"Grade 1, treatment-related",43 (31.9) no. (%)
same,Dry eye,"Grade 1, treatment-related",19 (14.1) no. (%)
same,Dry mouth,"Grade 1, treatment-related",44 (32.6) no. (%)
same,Dry skin,"Grade 1, treatment-related",22 (16.3) no. (%)
same,Dysgeusia,"Grade 1, treatment-related",25 (18.5) no. (%)
same,Fatigue,"Grade 1, treatment-related",12 (8.9) no. (%)
same,Hyperphosphatemia,"Grade 1, treatment-related",70 (51.9) no. (%)
same,Nausea,"Grade 1, treatment-related",6 (4.4) no. (%)
same,Neutropenia,"Grade 1, treatment-related",0 no. (%)
same,Onycholysis,"Grade 1, treatment-related",9 (6.7) no. (%)
same,Onychomadesis,"Grade 1, treatment-related",8 (5.9) no. (%)
same,Palmar-plantar erythrodysesthesia syndrome,"Grade 1, treatment-related",6 (4.4) no. (%)
same,Stomatitis,"Grade 1, treatment-related",20 (14.8) no. (%)
same,Central serous retinopathy,Grade 2,8 (5.9) no. (%)
same,Chorioretinopathy,Grade 2,3 (2.2) no. (%)
same,Detachment of macular retinal pigment epithelium,Grade 2,0 no. (%)
same,Detachment of retinal pigment epithelium,Grade 2,2 (1.5) no. (%)
same,Eye disorders (excluding central serous retinopathy),Grade 2,17 (12.6) no. (%)
same,Macular detachment,Grade 2,0 no. (%)
same,Nail disorders,Grade 2,50 (37.0) no. (%)
same,Retinopathy,Grade 2,2 (1.5) no. (%)
same,Skin disorders,Grade 2,31 (23.0) no. (%)
same,Subretinal fluid,Grade 2,1 (0.7) no. (%)
same,Hematuria,Grade 2,2 (1.5) no. (%)
same,Hyponatremia,Grade 2,0 no. (%)
same,Urinary tract infection,Grade 2,0 no. (%)
same,Alanine aminotransferase increased,"Grade 2, treatment-emergent",8 (5.9) no. (%)
same,Alopecia,"Grade 2, treatment-emergent",4 (3.0) no. (%)
same,Aspartate aminotransferase increased,"Grade 2, treatment-emergent",5 (3.7) no. (%)
same,Asthenia,"Grade 2, treatment-emergent",12 (8.9) no. (%)
same,Constipation,"Grade 2, treatment-emergent",12 (8.9) no. (%)
same,Decreased appetite,"Grade 2, treatment-emergent",14 (10.4) no. (%)
same,Diarrhea,"Grade 2, treatment-emergent",31 (23.0) no. (%)
same,Dry eye,"Grade 2, treatment-emergent",3 (2.2) no. (%)
same,Dry mouth,"Grade 2, treatment-emergent",8 (5.9) no. (%)
same,Dry skin,"Grade 2, treatment-emergent",6 (4.4) no. (%)
same,Dysgeusia,"Grade 2, treatment-emergent",8 (5.9) no. (%)
same,Fatigue,"Grade 2, treatment-emergent",8 (5.9) no. (%)
same,Hyperphosphatemia,"Grade 2, treatment-emergent",31 (23.0) no. (%)
same,Nausea,"Grade 2, treatment-emergent",8 (5.9) no. (%)
same,Neutropenia,"Grade 2, treatment-emergent",0 no. (%)
same,Onycholysis,"Grade 2, treatment-emergent",14 (10.4) no. (%)
same,Onychomadesis,"Grade 2, treatment-emergent",17 (12.6) no. (%)
same,Palmar-plantar erythrodysesthesia syndrome,"Grade 2, treatment-emergent",22 (16.3) no. (%)
same,Stomatitis,"Grade 2, treatment-emergent",32 (23.7) no. (%)
same,Weight decreased,"Grade 2, treatment-emergent",15 (11.1) no. (%)
same,Alanine aminotransferase increased,"Grade 2, treatment-related",7 (5.2) no. (%)
same,Alopecia,"Grade 2, treatment-related",4 (3.0) no. (%)
same,Anemia,"Grade 2, treatment-related",4 (3.0) no. (%)
same,Aspartate aminotransferase increased,"Grade 2, treatment-related",5 (3.7) no. (%)
same,Asthenia,"Grade 2, treatment-related",6 (4.4) no. (%)
same,Constipation,"Grade 2, treatment-related",4 (3.0) no. (%)
same,Decreased appetite,"Grade 2, treatment-related",10 (7.4) no. (%)
same,Diarrhea,"Grade 2, treatment-related",27 (20.0) no. (%)
same,Dry eye,"Grade 2, treatment-related",3 (2.2) no. (%)
same,Dry mouth,"Grade 2, treatment-related",8 (5.9) no. (%)
same,Dry skin,"Grade 2, treatment-related",6 (4.4) no. (%)
same,Dysgeusia,"Grade 2, treatment-related",8 (5.9) no. (%)
same,Fatigue,"Grade 2, treatment-related",6 (4.4) no. (%)
same,Hyperphosphatemia,"Grade 2, treatment-related",29 (21.5) no. (%)
same,Nausea,"Grade 2, treatment-related",7 (5.2) no. (%)
same,Neutropenia,"Grade 2, treatment-related",0 no. (%)
same,Onycholysis,"Grade 2, treatment-related",14 (10.4) no. (%)
same,Onychomadesis,"Grade 2, treatment-related",17 (12.6) no. (%)
same,Palmar-plantar erythrodysesthesia syndrome,"Grade 2, treatment-related",22 (16.3) no. (%)
same,Stomatitis,"Grade 2, treatment-related",31 (23.0) no. (%)
same,Central serous retinopathy,Grade ≥3,3 (2.2) no. (%)
same,Chorioretinopathy,Grade ≥3,0 no. (%)
same,Detachment of macular retinal pigment epithelium,Grade ≥3,1 (0.7) no. (%)
same,Detachment of retinal pigment epithelium,Grade ≥3,2 (1.5) no. (%)
same,Eye disorders (excluding central serous retinopathy),Grade ≥3,3 (2.2) no. (%)
same,Macular detachment,Grade ≥3,0 no. (%)
same,Nail disorders,Grade ≥3,15 (11.1) no. (%)
same,Retinopathy,Grade ≥3,0 no. (%)
same,Skin disorders,Grade ≥3,16 (11.9) no. (%)
same,Subretinal fluid,Grade ≥3,0 no. (%)
same,Hematuria,Grade ≥3,3 (2.2) no. (%)
same,Hyponatremia,Grade ≥3,3 (2.2) no. (%)
same,Urinary tract infection,Grade ≥3,6 (4.4) no. (%)
same,Alanine aminotransferase increased,"Grade ≥3, treatment-emergent",4 (3.0) no. (%)
same,Alopecia,"Grade ≥3, treatment-emergent",1 (0.7) no. (%)
same,Anemia,"Grade ≥3, treatment-emergent",10 (7.4) no. (%)
same,Aspartate aminotransferase increased,"Grade ≥3, treatment-emergent",3 (2.2) no. (%)
same,Asthenia,"Grade ≥3, treatment-emergent",2 (1.5) no. (%)
same,Constipation,"Grade ≥3, treatment-emergent",0 no. (%)
same,Decreased appetite,"Grade ≥3, treatment-emergent",4 (3.0) no. (%)
same,Diarrhea,"Grade ≥3, treatment-emergent",4 (3.0) no. (%)
same,Dry eye,"Grade ≥3, treatment-emergent",0 no. (%)
same,Dry mouth,"Grade ≥3, treatment-emergent",0 no. (%)
same,Dry skin,"Grade ≥3, treatment-emergent",2 (1.5) no. (%)
same,Dysgeusia,"Grade ≥3, treatment-emergent",1 (0.7) no. (%)
same,Fatigue,"Grade ≥3, treatment-emergent",0 no. (%)
same,Hyperphosphatemia,"Grade ≥3, treatment-emergent",7 (5.2) no. (%)
same,Nausea,"Grade ≥3, treatment-emergent",2 (1.5) no. (%)
same,Neutropenia,"Grade ≥3, treatment-emergent",0 no. (%)
same,Onycholysis,"Grade ≥3, treatment-emergent",8 (5.9) no. (%)
same,Onychomadesis,"Grade ≥3, treatment-emergent",2 (1.5) no. (%)
same,Palmar-plantar erythrodysesthesia syndrome,"Grade ≥3, treatment-emergent",13 (9.6) no. (%)
same,Stomatitis,"Grade ≥3, treatment-emergent",11 (8.1) no. (%)
same,Weight decreased,"Grade ≥3, treatment-emergent",3 (2.2) no. (%)
same,Alanine aminotransferase increased,"Grade ≥3, treatment-related",4 (3.0) no. (%)
same,Alopecia,"Grade ≥3, treatment-related",1 (0.7) no. (%)
same,Anemia,"Grade ≥3, treatment-related",4 (3.0) no. (%)
